Assay results taken from patent US20240141291A1, “FUNCTIONAL BRAIN REGION-SPECIFIC NEURAL SPHEROIDS AND METHODS OF USE” (THE UNITED STATES OF AMERICA, AS REPRESENTED BY THE …, priority 2021, published 2024).
“Also recorded” adds a separate entry of the source.

What was measured:
Type in all cases: cell-based, human
[1] = tested on: single neuron spheroids expressing hM3Dq or hM4Di; test: Chemogenetic (DREADDs) activation with CNO, FLIPR calcium activity; details: 1 uM CNO
Experimental: Viruses and dyes: To assess calcium activity, the calcium dye, Cal6 (Molecular Devices), and genetically encoded calcium indicator, GCaMP6f (Addgene, cat #100836-AAV9) were used. Cal6 was used according to manufacturer's instructions and 10 mL of maintenance media was added to each vial. Two hours before activity was recorded, half of the spheroid media was exchanged for media with Cal6. The plates were covered in foil and placed in the incubator at 37° C. during the 2-hour (hr) incubation period. Since all viruses used were adeno-associated viruses (AAV), they were added to the media on day 7 to allow for 2-weeks expression prior to recording or testing. […]
Fluorescent Imaging plate Reader (FLIPR): The FLIPR Penta (Molecular Devices) was used to assess calcium fluorescence across the 384-well plate simultaneously and to observe changes after treatment with compounds. The evening before calcium activity was measured, plates were sealed with parafilm and centrifuged at 1485×g for 2-min to get spheroids to the bottom of the well in a centered position. On the day of recording, the plate used for recording was placed in the read plate position inside of the FLIPR following the 2-hour Cal6 incubation at 37° C. […] Fluorescent image reads were taken every 0.6 seconds for all plates, with exposure time of 0.03 and 50% excitation intensity. […]

APOE4 PFC-like spheroids = test: Alzheimer's Disease model, FLIPR calcium activity after compound treatment; details: 90 min after treatment, Memantine 10 μM, Donepezil 1 & 10 uM, EUK-134 1 & 10 μM
Experimental: (§1) Fluorescent Imaging plate Reader (FLIPR): The FLIPR Penta (Molecular Devices) was used to assess calcium fluorescence across the 384-well plate simultaneously and to observe changes after treatment with compounds. The evening before calcium activity was measured, plates were sealed with parafilm and centrifuged at 1485×g for 2-min to get spheroids to the bottom of the well in a centered position. On the day of recording, the plate used for recording was placed in the read plate position inside of the FLIPR following the 2-hour Cal6 incubation at 37° C. Standard filter sets were used for Cal6 imaging with excitation set at 470-495 and emission at 515-575 nm. Fluorescent image reads were taken every 0.6 seconds for all plates, with exposure time of 0.03 and 50% excitation intensity. Recordings from the initial seven plates consisted of 1000 reads and were 10-min recordings with 2.5 gain, while the final two plates consisted of 500 reads (5-min recordings) with a gain of 2. Baseline recordings were taken across all plates and, if applicable, more recordings were obtained 1-, 30-, 60-, and/or 90-min after compound treatment. In between recordings, plates were wrapped in foil and placed back in the incubator at 37° C.
384 Pin Tool: A 384 well pin tool (Rexroth) was used to transfer compounds simultaneously to the spheroid plate. Prior to compound transfer, the pin tool went through four wash cycles where pins were rinsed with dimethyl sulfoxide (DMSO), followed by methanol, then deionized (DI) water, to ensure the pins were clean. Compound transfer via the 384 well pin tool occurred after the baseline recordings with the fluorescent imaging plate reader (FLIPR). […]
Calcium Activity Analysis: Calcium oscillatory peak detection data from FLIPR recordings was obtained through ScreenWorks 5.1 (Molecular Devices). […] There, percent coefficient of variance (% CV) was calculated within each plate to measure how variable each parameter exported was. […]

VTA-like spheroids = test: FLIPR calcium activity with Cal6 dye, control compounds / DAMGO (Example 3); details: VTA-like spheroids; recordings 1-, 30-, 60-min after treatment
Experimental: (§2) Viruses and dyes: To assess calcium activity, the calcium dye, Cal6 (Molecular Devices), and genetically encoded calcium indicator, GCaMP6f (Addgene, cat #100836-AAV9) were used. Cal6 was used according to manufacturer's instructions and 10 mL of maintenance media was added to each vial. Two hours before activity was recorded, half of the spheroid media was exchanged for media with Cal6. The plates were covered in foil and placed in the incubator at 37° C. during the 2-hour (hr) incubation period. Since all viruses used were adeno-associated viruses (AAV), they were added to the media on day 7 to allow for 2-weeks expression prior to recording or testing. All viruses were added to the media at 2e5 multiplicity of infection (MOI). GCaMP6f infection occurred via an adeno-associated virus serotype 9 (AAV9) expressed under the CAG promoter for expression in both neurons and astrocytes. Designer receptors exclusively activated by designer drugs (DREADDs) viruses were used to stimulate and inhibit neuronal activity within spheroids. Both viruses were retrograde AAVs expressed under the human Synapsin promoter for expression in neurons and fused with an mCherry fluorophore. The DREADDs viruses either inserted the designer receptor hM4D(Gi), an inhibitory G-protein coupled receptor, or hM3D(Gq), a stimulatory G-protein coupled receptor. Clozapine-N-oxide (CNO, Tocris cat #4936) was suspended in dimethyl sulfoxide (DMSO) and used as the designer drug to activate the DREADDs viruses. CNO was tested at 1 and 10 μM, with data reported from the 1 μM concentration.
as §1
DAMGO was reconstituted in water at a 1 mM concentration and diluted in media to 20 µM such that spheroids would be treated with a final concentration of 10 μM after the half media exchange. Two aspects of OUD were modeled, chronic treatment along with opioid withdrawal. […]
384 Pin Tool: A 384 well pin tool (Rexroth) was used to transfer compounds simultaneously to the spheroid plate. […] Compound transfer via the 384 well pin tool occurred after the baseline recordings with the fluorescent imaging plate reader (FLIPR). […]

PFC-like spheroids = test: FLIPR calcium activity with Cal6 dye, control compounds / DAMGO / AD compounds (Example 3); details: PFC-like spheroids; recordings 1-, 30-, 60-min after treatment
Experimental: as §2, §1
DAMGO was reconstituted in water at a 1 mM concentration and diluted in media to 20 µM such that spheroids would be treated with a final concentration of 10 μM after the half media exchange. Two aspects of OUD were modeled, chronic treatment along with opioid withdrawal. For spheroids subjected to chronic DAMGO treatment, 20 μM DAMGO in maintenance media was added via half media exchange beginning on day 10, with treatments occurring every other day for 10 days, giving a total of five treatments.
384 Pin Tool: A 384 well pin tool (Rexroth) was used to transfer compounds simultaneously to the spheroid plate. Prior to compound transfer, the pin tool went through four wash cycles where pins were rinsed with dimethyl sulfoxide (DMSO), followed by methanol, then deionized (DI) water, to ensure the pins were clean. Compound transfer via the 384 well pin tool occurred after the baseline recordings with the fluorescent imaging plate reader (FLIPR). Here, 60 nL of compound suspended in DMSO was transferred to 60 µL of media in each well, diluting the compounds by 1000-fold and giving a final DMSO concentration of 0.1%.

Compound | effect of chemogenetic activation on peak parameters ([1]; spheroids with Dopa or Gluta composition expressing hM3Dq) | effect of chemogenetic inhibition on peak parameters ([1]; spheroids with Dopa or Gluta composition expressing hM4Di) | reversal of APOE4-induced deficits in peak count and spacing (APOE4 PFC-like spheroids) | functional response (calcium activity peak parameters) to control compound (VTA-like spheroids) | functional response (calcium activity peak parameters) to control compound (PFC-like spheroids)
C[N+]1([O-])CCN(C2=Nc3cc(Cl)ccc3Nc3ccccc32)CC1 [CNO, Clozapine-N-oxide] | chemogenetic activation increased measures of peak frequency such as peak count and rate while reducing parameters such as peak spacing and peak width | the opposite was observed for these spheroids subjected to chemogenetic inhibition |  |  | 
COc1cccc(C=NCCN=Cc2cccc(OC)c2[O-])c1[O-].[Cl-].[Mn+3] [EUK-134] |  |  | reverse deficits caused by APOE4 GABA neurons; also recorded: restore deficits in peak count |  | 
COc1cc2c(cc1OC)C(=O)C(CC1CCN(Cc3ccccc3)CC1)C2 (stereo not shown) [Donepezil] |  |  | reverse deficits caused by APOE4 GABA neurons; also recorded: restore deficits in peak count |  | 
CC12CC3CC(C)(C1)CC(N)(C3)C2 [Memantine] |  |  | reverse deficits caused by APOE4 GABA neurons; also recorded: restore deficits in peak count | increases in peak count and rate and decreases in peak amplitude | increases in peak count and rate and decreases in peak amplitude
